Residue numbers refer to the chain shown, from its start.
B1: IL-28A: secreted, recombinant human protein profiled in the bronchosphere assay (protein, UniProt Q8IZJ0 26-200, looked up)
Interferon lambda-2: VPVARLHGALPDARGCHIAQFKSLSPQELQAFKRAKDALEESLLLKDCRCHSRLFPRTWDLRQLQVRERPMALEAELALTLKVLEATADTDPALVDVLDQPLHTLHHILSQFRACIQPQPTAGPRTRGRLHHWLYRLQEAPKKESPGCLEASVTFNLFRLLTRDLNCVASGDLCV
B2: IL-28B: secreted, recombinant human protein profiled in the bronchosphere assay (protein, UniProt Q8IZI9 22-196, looked up)
Interferon lambda-3: B1 Interferon lambda-2 with H7R, R49K, H51R, M71V, V95G, F112L, Y135H
B3: IL-29: secreted, recombinant human protein profiled in the bronchosphere assay (protein, UniProt Q8IU54 20-200, looked up)
Interferon lambda-1: GPVPTSKPTTTGKGCHIGRFKSLSPQELASFKKARDALEESLKLKNWSCSSPVFPGNWDLRLLQVRERPVALEAELALTLKVLEAAAGPALEDVLDQPLHTLHHILSQLQACIQPQPTAGPRPRGRLHHWLHRLQEAPKKESAGCLEASVTFNLFRLLTRDLKYVADGNLCLRTSTHPEST
B4: IL-1a: secreted, recombinant human protein profiled in the bronchosphere assay (protein, UniProt P01583 113-271, looked up)
Interleukin-1 alpha: SAPFSFLSNVKYNFMRIIKYEFILNDALNQSIIRANDQYLTAAALHNLDEAVKFDMGAYKSSKDDAKITVILRISKTQLYVTAQDEDQPVLLKEMPEIPKTITGSETNLLFFWETHGTKNYFTSVAHPNLFIATKQDYWVCLAGGPPSITDFQILENQA
B5: FGF-7: secreted, recombinant human protein profiled in the bronchosphere assay (protein, UniProt P21781 32-194, looked up)
Fibroblast growth factor 7: CNDMTPEQMATNVNCSSPERHTRSYDYMEGGDIRVRRLFCRTQWYLRIDKRGKVKGTQEMKNNYNIMEIRTVAVGIVAIKGVESEFYLAMNKEGKLYAKKECNEDCNFKELILENHYNTYASAKWTHNGGEMFVALNQKGIPVRGKKTKKEQKTAHFLPMAIT

Key:
airway basal cells = experiment: Air-liquid interface (ALI) cultures of airway basal cells treated with IL-17A; assay type: cell-based, human; details: IL-17A from day 7 (day 0 at ALI), analysed day 21; FIGS. 3d, 3e
Experimental: Human bronchial epithelial (HBE) cells and culture media were obtained from Lonza. Air-liquid interface cultures using passage 2 (P2) cells were performed as previously described (Danahay, H. et al., American journal of physiology. Lung cellular and molecular physiology 282, L226-236 (2002)). For three-dimensional culturing of HBE cells, P1 cells were trypsinized and resuspended (30,000 cells/ml) in HBE differentiation media containing 5% growth factor-reduced Matrigel (BD Biosciences). 20 μl of suspension was plated in each well of a 384-well plate (Greiner) pre-coated with 10 μl of a 25% solution of Matrigel (BD Biosciences) in HBE differentiation media. […] Three-dimensional cultures were analyzed at the time points indicated.
Immunofluorescence of HBEC bronchospheres was performed as described previously for MCF10A cysts (Debnath, J. et al., Methods 30, 256-268 (2003) with the following modifications. After incubation with fluorescence-conjugated secondary antibodies, DNA was stained with a 1:1 mix of PBS and ProLong gold antifade containing DAPI. Confocal microscopy was performed at room temperature on a microscope (Zeiss LSM510 Meta) using an EC Plan-Neofluar 10×/0.30 dry objective (Zeiss), an EC Plan-Neofluor 20×/0.5 dry objective (Zeiss), a C-Apochromat 40×/1.2 W corr (Zeiss), or a C-Apochromat 63×/1.2 W Corr objective (Zeiss). […]

[1] = test system: bronchospheres (human bronchial epithelial cells); experiment: Bronchosphere assay of secreted recombinant human proteins, qPCR of cell type markers and immunostaining; assay type: cell-based; details: for change in expression of at least one cell-type marker, initial screen: 55 proteins tested at 3.3, 10 and 30 ng/mL; for expression of both of the ciliated cell markers: markers FOXJ1, DNAI2; for expression of at least two of the goblet cell markers: markers MUC5AC, MUC5B, FOXA3; for change in expression of at least one of the cell-type markers, on validation: expanded concentration range
Experimental: Human bronchial epithelial (HBE) cells and culture media were obtained from Lonza. Air-liquid interface cultures using passage 2 (P2) cells were performed as previously described (Danahay, H. et al., American journal of physiology. Lung cellular and molecular physiology 282, L226-236 (2002)). For three-dimensional culturing of HBE cells, P1 cells were trypsinized and resuspended (30,000 cells/ml) in HBE differentiation media containing 5% growth factor-reduced Matrigel (BD Biosciences). 20 μl of suspension was plated in each well of a 384-well plate (Greiner) pre-coated with 10 μl of a 25% solution of Matrigel (BD Biosciences) in HBE differentiation media. Wells were fed or treated at day 2 and day 8 of culture by adding 30 μl of differentiation media containing the appropriate treatment. Three-dimensional cultures were analyzed at the time points indicated.
Immunofluorescence of HBEC bronchospheres was performed as described previously for MCF10A cysts (Debnath, J. et al., Methods 30, 256-268 (2003) with the following modifications. After incubation with fluorescence-conjugated secondary antibodies, DNA was stained with a 1:1 mix of PBS and ProLong gold antifade containing DAPI. Confocal microscopy was performed at room temperature on a microscope (Zeiss LSM510 Meta) using an EC Plan-Neofluar 10×/0.30 dry objective (Zeiss), an EC Plan-Neofluor 20×/0.5 dry objective (Zeiss), a C-Apochromat 40×/1.2 W corr (Zeiss), or a C-Apochromat 63×/1.2 W Corr objective (Zeiss). Images were collected with Zen confocal software (Zeiss). Scale bars were added, and images were processed using Zen (Zeiss) and Photoshop (Adobe). Air-liquid interface (ALI) cultures were processed for immunofluorescence analysis after 14 days of culture at ALI by rinsing the apical surface of each filter with PBS, and then fixing in 4% paraformaldehyde for 4 hours. Filters were washed with IF buffer (130 mM NaCl, 7 mM Na2HPO4, 3.5 mM NaH2PO4, 7.7 mM NaN3, 0.1% bovine serum albumin, 0.2% Triton X-100, 0.05% Tween-20), blocked with IF wash containing 10% goat serum, and stained with primary antibody in IF wash containing 10% goat serum overnight at 4° C. Secondary antibodies were used at a 1:200 dilution in IF buffer containing 10% goat serum. To quantify the total staining area of ALI cultures, 10×13 images were collected with a plan Neofluar 10×0.3 NA Ph1 objective (EC; Carl Zeiss, Inc.) on a microscope (Axiovert 200; Carl Zeiss, Inc.) equipped with a motorized stage and a camera (Orca-ER-1394; Hamamatsu Photonics) controlled by Axiovision software (Carl Zeiss, Inc.) and used to generate a single composite image using the MOSAIX function in Zeiss Axiovision. Quantification of the total staining area was performed with ImageJ. Two to three regions of each ALI culture were punched out with a 4 mm biopsy punch (Miltex, Inc.) and mounted in ProLong gold antifade containing DAPI for imaging by confocal microscopy on a microscope (Axiovert 200; Carl Zeiss, Inc.) equipped with a motorized stage, a Yokogawa CSU-X1 spinning disc head, and an EMCCD camera (Evolve 512, Photometrics), with a Plan-Apochromat 100×/1.4 Oil DIC objective (Zeiss). Cells positive for MUC5AC, MUC5B, or cilia (acetylated α-Tubulin) staining were counted manually. For time-lapse video microscopy, HBECs were imaged at the indicated times during bronchosphere development at 37° C. with a plan Neofluar 10×0.3 NA Ph1 objective (EC; Carl Zeiss, Inc.). Images were taken every 5 min for the indicated time period. Annotations (time stamp and scale bar) were added and videos were assembled using Axiovision software.
RNA was isolated from 3D bronchosphere cultures with Trizol (Invitrogen), using manufacturer's specifications. To isolate RNA from mouse tissue, approximately 20 mg of tissue was placed in a 1.5 ml eppendorf tube with 1 ml of Buffer RLT Plus (Qiagen). A 5 mm stainless steel bead (Qiagen) was added to the tube, and the tissue was sheared using a Tissue Lyser II (Qiagen).

[2] = IL-13 treated bronchospheres, immunostaining, FIG. 2c
[3] = IL-13 treatment between days 2 and 14 after seeding, qPCR, FIG. 2a

Molecule	change in expression of at least one cell-type marker, initial screen [1]	expression of both of the ciliated cell markers [1]	expression of at least two of the goblet cell markers [1]	change in expression of at least one of the cell-type markers, on validation [1]	further results
IL-17A: secreted, recombinant human protein; cytokine secreted by Th17 cells	concentration-dependent change	attenuated	enhanced	robust change	goblet cell population (MUC5AC and MUC5B markers) (airway basal cells): profound expansion; number of ciliated cells (α-tubulin marker) (airway basal cells): dramatic reduction; basal cell markers ([1]; IL-17A, qPCR, FIG. 3c): No significant changes; levels of goblet cell markers (MUC5AC, MUC5B and FOXA3) ([1]; broader range of IL-17A concentrations, qPCR, FIG. 3a): increased levels; expression of markers of ciliated cells (FOXJ1 and DNAI2) ([1]; broader range of IL-17A concentrations, qPCR, FIG. 3b): inhibiting
IFN-γ: secreted, recombinant human protein profiled in the bronchosphere assay	concentration-dependent change	attenuated	enhanced	robust change	–
IL1-β: secreted, recombinant human protein profiled in the bronchosphere assay	concentration-dependent change	attenuated	enhanced	robust change	–
IL-13: secreted, recombinant human protein (inflammatory cytokine) profiled in the bronchosphere assay	concentration-dependent change	attenuated	enhanced	robust change	acetylated α-tubulin positive structures [1, 2]: lack; secreted mucins in the central lumen [1, 2]: accumulation; ciliated cell marker expression [1, 3]: declined; expression of markers of goblet cells [1, 3]: clear enhancement; concentrations toxic and disrupting bronchosphere formation ([1]; data not shown): > 3 ng/mL
B1	concentration-dependent change	attenuated	enhanced	robust change	–
B2	concentration-dependent change	attenuated	enhanced	robust change	–
B3	concentration-dependent change	attenuated	enhanced	robust change	–
B4	concentration-dependent change	attenuated	enhanced	robust change	–
B5	concentration-dependent change	–	–	–	expression of MUC5B ([1]; bronchosphere assay): enhanced; effect on any of the other markers ([1]; markers other than MUC5B): without affecting

— patent US9944700B2, “Notch2 binding molecules for treating respiratory diseases” (NOVARTIS AG, priority 2013, dated 2018)
